The values below come from patent US12643884B2, “1-(2-(4-cyclopropyl-1H-1,2,3-triazol-1-yl)acetyl)-4-hydroxypyrrolidine-2-carboxa|mide derivatives as VHL inhibitors for the treatment of anemia” (Genentech, Inc., priority 2020, dated 2026).

One data set deals with T1, VHL (Homo sapiens, UniProt P40337).
T1 construct: expressed in transfected cells
Put plainly: VHL nanoBRET (+Digitonin). In kind it is cell-based. For orientation: In BRET a luciferase serves as donor, and the signal depends on an acceptor being close.

Data set [1] addresses T2, NanoLuc VHL fusion protein stably expressed in HEK 293 cells (Homo sapiens, UniProt P40337).
T2 construct: expressed in transfected cells
Briefly: VHL HEK-293 BRET Assay (VHL NanoBRET Target Engagement Assay). In kind it is cell-based. The conditions noted are these: for IC50: HEK293 cells, nanoBRET, geometric mean where more than one measurement, read-out: VHL binding in cells (HEK293 nanoBRET); for Ratio cell permeability shift: ratio of nanoBRET in cells to nanoBRET +Digitonin. As for the experimental part:
The VHL NanoBRET™ Target Engagement Assay analyzes the apparent affinity of test compounds for VHL in cells by competitive displacement of a VHL NanoBRET™ tracer reversibly bound to a NanoLuc® VHL fusion protein stably expressed in the cells.
Test compounds were transferred to the assay plate (384 Well White Non-Binding Corning Assay Plates (Corning-3574)) using an Echo 555 Liquid Handler (Labcyte) in 2.5 nL increments and, as appropriate, intermediate stock concentrations of compounds, in order to prepare a titration series. 50 nL of control compound (10 mM; parental unlabeled VHL antagonist; see structure below) and 50 nL of DMSO (negative control) were dispensed into the appropriate control wells. DMSO was backfilled to a final volume of 50 nL as required. 50 nl per well of 1 mM VHL NanoBRET™ Tracer in DMSO (NanoBRET™ Tracer-PEG2-590 (see structure below)) was transferred into each well using an Echo 555 (ultimately yielding a final concentration of 1 uM). HEK 293 RT VHL-NanoLuc® stable cells were cultured in DMEM High Glucose with Pyruvate, 10% fetal bovine serum, 2 mg/mL of Geneticin Selective Antibiotic (50 mg/ml) and 2 mM HEPES (1 M). Cells were seeded in Opti-MEM (Life Technologies-11058-021), 1.7×10^5 cells/mL, 40 μl per well into the assay plate, centrifuged at 500 rpm for 30 seconds and incubated for 2 hours. Max Signal control wells consisted of DMSO only treated wells. Minimum Signal control wells contained of 10 uM parental unlabeled VHL antagonist (control compound—see structure below). 3× Complete Substrate plus Inhibitor Solution was prepared in Opti-MEM (consists of a 1:166 dilution of NanoBRET™ Nano-Glo® Substrate plus a 1:500 dilution of Extracellular NanoLuc® Inhibitor in Opti-MEM), and 20 ul was dispensed into each well of the 384-well plate and centrifuged at 1000 rpm for 1 minute, then incubated for 2 minutes at room temperature. Background Signal control wells were prepared without tracer for background correction steps.
Plates were read using a PerkinElmer Envision Reader (model 2104-0020) equipped with Luminescence option (Mirror: BRET2 Enh (PE Barcode 659), Emission Filter: Omega 610LP (Barcode 504), 2nd Emission Filter: Umbelliferone 460 (Barcode 207), Measurement height: 6.5 mm, Measurement time: 1 s). The raw BRET ratio values were calculated by dividing the acceptor emission value (610 nm) by the donor emission value (460 nm) for each sample. To correct for background, the BRET ratio in the absence of tracer (average of no-tracer control samples) was subtracted from the BRET ratio of each sample. Raw BRET units were converted to milliBRET units (mBU) by multiplying each raw BRET value by 1,000. The normalized NanoBRET™ signal was calculated relative to the Max Signal control wells (DMSO treated control wells) and the Minimum Signal control wells. Percentage inhibition was calculated relative to the Minimum Signal control and Maximum Signal control wells. IC50 values were derived by four parameter curve fitting using the Robust method.

T2 sequence (P40337 whole entry, the tested form may be a part): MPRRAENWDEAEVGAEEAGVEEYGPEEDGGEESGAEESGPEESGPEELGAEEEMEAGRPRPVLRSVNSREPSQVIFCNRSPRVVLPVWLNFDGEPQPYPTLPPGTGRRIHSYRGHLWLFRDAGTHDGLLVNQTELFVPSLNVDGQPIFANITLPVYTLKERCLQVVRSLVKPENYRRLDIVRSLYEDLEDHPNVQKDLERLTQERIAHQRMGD
T2 sequence (Q15370 whole entry partner, the tested form may be a part): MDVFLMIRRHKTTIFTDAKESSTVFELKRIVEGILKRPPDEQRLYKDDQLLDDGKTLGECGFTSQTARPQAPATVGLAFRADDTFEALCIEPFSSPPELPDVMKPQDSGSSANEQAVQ
T2 sequence (Q15369 whole entry partner, the tested form may be a part): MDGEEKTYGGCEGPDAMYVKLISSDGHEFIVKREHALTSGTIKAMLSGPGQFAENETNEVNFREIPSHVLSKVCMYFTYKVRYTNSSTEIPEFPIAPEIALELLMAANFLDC
T1 sequence (P40337 whole entry): as the sequence (P40337 whole entry, the tested form may be a part) above
T1 sequence (Q15370 whole entry partner): as the sequence (Q15370 whole entry partner, the tested form may be a part) above
T1 sequence (Q15369 whole entry partner): as the sequence (Q15369 whole entry partner, the tested form may be a part) above

As a reminder, the EC50 is the midpoint of the concentration-response curve. Read a high EC50 as a need for much substance. In the case of `CC(C)(C)[C@@H](C(=O)N1C[C@H](O)C[C@H]1C(=O)NC1CC1)n1cc(C2CC2)nn1` [Final product from Example S13, (2S,4R)—N-cyclopropyl-1-((S)-2-(4-cyclopropyl-1H-1,2,3-triazol-1-yl)-3,3-dimethylbutanoyl)-4-hydroxypyrrolidine-2-carboxamide], it took 6.27 µM to reach a half-maximal effect on VHL (EC50). For the same compound, in data set [1], the IC50 came out at 9.68 µM and the “Ratio cell permeability shift” value stood at 1.54.
On the same counts, the results for `CNC(=O)[C@@H]1C[C@@H](O)CN1C(=O)[C@H](C(C)C)n1cc(-c2ccc(Cl)s2)nn1` [Final product from Example S40, (2S,4R)-1-((S)-2-(4-(5-chlorothiophen-2-yl)-1H-1,2,3-triazol-1-yl)-3-methylbutanoyl)-4-hydroxy-N-methylpyrrolidine-2-carboxamide] are 0.46 µM, 0.57 µM and 1.24.
On VHL, `CNC(=O)[C@@H]1C[C@@H](O)CN1C(=O)[C@H](C(C)C)n1nnc2ccccc21` (single isomer, unassigned) [Final product from Example S24] returned an EC50 of 2.84 µM. In data set [1], the IC50 is 2.15 µM and the “Ratio cell permeability shift” value is given as 0.76.
As to `CNC(=O)[C@@H]1C[C@@H](O)CN1C(=O)[C@H](C(C)C)n1cc(-c2cncs2)nn1` (single isomer, unassigned) [Final product from Example S33], the EC50 at VHL came to 1.12 µM. Moreover, in data set [1], the IC50 is 0.9 µM and the “Ratio cell permeability shift” value is given as 0.80.
On the same counts, the results for `CNC(=O)[C@@H]1C[C@@H](O)CN1C(=O)[C@H](C(C)C)n1cc(-c2ncccn2)nn1` [Final product from Example S38, (2S,4R)-4-hydroxy-N-methyl-1-((S)-3-methyl-2-(4-(pyrimidin-2-yl)-1H-1,2,3-triazol-1-yl)butanoyl)pyrrolidine-2-carboxamide] are 4.06 µM, 13.8 µM and 3.40.
On the same counts, the results for `CNC(=O)[C@@H]1C[C@@H](O)CN1C(=O)[C@H](C(C)C)n1cc(-c2cnco2)nn1` [Final product from Example S32, (2S, 4R)-4-hydroxy-N-methyl-1-[(2S)-3-methyl-2-(4-oxazol-5-yltriazol-1-yl)butanoyl]pyrrolidine-2-carboxamide] are 2.12 µM, 3.2 µM and 1.51.
In the same order, the values of `CC(C)(C)[C@@H](C(=O)N1C[C@H](O)C[C@H]1C(=O)NCC(F)(F)F)n1cc(C2CC2)nn1` [Final product from Example S14, (2S,4R)-1-((S)-2-(4-cyclopropyl-1H-1,2,3-triazol-1-yl)-3,3-dimethylbutanoyl)-4-hydroxy-N-(2,2,2-trifluoroethyl)pyrrolidine-2-carboxamide] are 5.3 µM, 6.55 µM and 1.24.
In turn, `CNC(=O)[C@@H]1C[C@@H](O)CN1C(=O)[C@H](C(C)C)n1cc(-c2ccco2)nn1` [Final product from Example S19, (2S, 4R)-1-((S)-2-(4-(furan-2-yl)-1H-1,2,3-triazol-1-yl)-3-methylbutanoyl)-4-hydroxy-N-methylpyrrolidine-2-carboxamide] returned an EC50 at VHL of 0.89 µM. Moreover, in data set [1], the IC50 stood at 0.8 µM and the “Ratio cell permeability shift” value was found to be 0.90.
On the same counts, the results for `CNC(=O)[C@@H]1C[C@@H](O)CN1C(=O)[C@H](C(C)C)n1nnc2c(OC)cccc21` (single isomer, unassigned) [Final product from Example S25] are 3.8 µM, 2.6 µM and 0.68.
For `CNC(=O)[C@@H]1C[C@@H](O)CN1C(=O)[C@H](C(C)C)n1cc(C2CCC2)nn1` [Final product from Example S21, (2S,4R)-1-((S)-2-(4-cyclobutyl-1H-1,2,3-triazol-1-yl)-3-methylbutanoyl)-4-hydroxy-N-methylpyrrolidine-2-carboxamide], on VHL, the EC50 was determined as 3.29 µM. In addition, in data set [1], the IC50 is 2.83 µM and the “Ratio cell permeability shift” value is recorded as 0.86.
In the same order, the values of `CNC(=O)[C@@H]1C[C@@H](O)CN1C(=O)[C@H](C1CCN(C(C)=O)CC1)n1cc(C2CC2)nn1` [Final product from Example S9, (2S,4R)-1-((S)-2-(1-acetylpiperidin-4-yl)-2-(4-cyclopropyl-1H-1,2,3-triazol-1-yl)acetyl)-4-hydroxy-N-methylpyrrolidine-2-carboxamide] are 2.67 µM, 69.5 µM and 26.03.
On the same counts, the results for `CNC(=O)[C@@H]1C[C@@H](O)CN1C(=O)C(n1cc(C2CC2)nn1)C1(C)CCCCC1` (stereo partly drawn) [Final product from Example S5, (2S,4R)-1-[2-(4-cyclopropyltriazol-1-yl)-2-(1-methylcyclohexyl)acetyl]-4-hydroxy-N-methyl-pyrrolidine-2-carboxamide] are 8.45 µM, 10.5 µM and 1.24.
Turning to `CNC(=O)[C@@H]1C[C@@H](O)CN1C(=O)[C@H](C1CCOCC1)n1cc(C2CC2)nn1` (single isomer, unassigned) [Final product from Example S6], a half-maximal effect on VHL (EC50) was put at 2.68 µM. Moreover, in data set [1], the IC50 came to 8.04 µM and the “Ratio cell permeability shift” value is 3.00.
Compound `CNC(=O)[C@@H]1C[C@@H](O)CN1C(=O)[C@H](C(C)C)n1cc(C2CC2)nn1` (single isomer, unassigned) [Isomer A from Example S11] had an EC50 on VHL of 3.1 µM. In addition, in data set [1], the IC50 stood at 3 µM and the “Ratio cell permeability shift” value worked out at 0.97.
In the same order, the values of `CNC(=O)[C@@H]1C[C@@H](O)CN1C(=O)[C@H](C(C)C)n1cc(-c2nccs2)nn1` (mixture of isomers) [Final product from Example S31, (2S, 4R)-4-hydroxy-N-methyl-1-[rac-(2S)-3-methyl-2-(4-thiazol-2-yltriazol-1-yl)butanoyl]pyrrolidine-2-carboxamide] are 1.2 µM, 1.1 µM and 0.92.
On VHL, `CNC(=O)[C@@H]1C[C@@H](O)CN1C(=O)[C@H](C1CCNCC1)n1cc(C2CC2)nn1` [Final product from Example S7, (2S,4R)-1-((S)-2-(4-cyclopropyl-1H-1,2,3-triazol-1-yl)-2-(piperidin-4-yl)acetyl)-4-hydroxy-N-methylpyrrolidine-2-carboxamide] yielded a half-maximal effective concentration (EC50) of 8.96 µM. The “Ratio cell permeability shift” value in data set [1] is reported as over 10.00.
The compound `CCNC(=O)[C@@H]1C[C@@H](O)CN1C(=O)[C@@H](n1cc(C2CC2)nn1)C(C)(C)C` [Final product from Example S17, (2S,4R)-1-((S)-2-(4-cyclopropyl-1H-1,2,3-triazol-1-yl)-3,3-dimethylbutanoyl)-N-ethyl-4-hydroxypyrrolidine-2-carboxamide] had an EC50 at VHL of 3.89 µM. In data set [1], the IC50 was found to be 4.15 µM and the “Ratio cell permeability shift” value worked out at 1.07.
In the same order, the values of `CC(C)NC(=O)[C@@H]1C[C@@H](O)CN1C(=O)[C@@H](n1cc(C2CC2)nn1)C(C)(C)C` [Final product from Example S15, (2S,4R)-1-((S)-2-(4-cyclopropyl-1H-1,2,3-triazol-1-yl)-3,3-dimethylbutanoyl)-4-hydroxy-N-isopropylpyrrolidine-2-carboxamide] are 5.99 µM, 9.09 µM and 1.52.
As to `CNC(=O)[C@@H]1C[C@@H](O)CN1C(=O)[C@H](C(C)C)n1cc(-c2ncco2)nn1` (single isomer, unassigned) [Final product from Example S30], a half-maximal effect at VHL (EC50) was put at 0.97 µM. Also, in data set [1], the IC50 was found to be 0.92 µM and the “Ratio cell permeability shift” value is recorded as 0.95.
